Source: the supplement of paper PMC10307832

Key:
Assay in all cases: relative viability (nuclei count vs DMSO), 5 days (fraction); higher = more cells survive
Alisertib + Bortezomib = compound: COc1cc(Nc2ncc3c(n2)-c2ccc(Cl)cc2C(c2c(F)cccc2OC)=NC3)ccc1C(=O)O [Alisertib] + CC(C)C[C@H](NC(=O)[C@H](Cc1ccccc1)NC(=O)c1cnccn1)B(O)O [Bortezomib] (partner 0.002 µM)
Outline: (§1)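 Lung cancer cell lines, seeded in 1536-well plates, were treated the following day by pin tool with a single drug or with five library-drug doses (not always all listed) in √10 steps on top of a fixed anchor-drug dose. Cells were fixed and nuclei stained in one step after 5 days, and nuclei were counted. Relative viability is the nuclei count for treated wells divided by that for vehicle wells, reported as medians of duplicate plates.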

Alisertib + Pictilisib = compound: COc1cc(Nc2ncc3c(n2)-c2ccc(Cl)cc2C(c2c(F)cccc2OC)=NC3)ccc1C(=O)O [Alisertib] + CS(=O)(=O)N1CCN(Cc2cc3nc(-c4cccc5[nH]ncc45)nc(N4CCOCC4)c3s2)CC1 [Pictilisib] (partner 1 µM)
Outline: as §1

Alisertib + Olaparib = compound: COc1cc(Nc2ncc3c(n2)-c2ccc(Cl)cc2C(c2c(F)cccc2OC)=NC3)ccc1C(=O)O [Alisertib] + O=C(c1cc(Cc2n[nH]c(=O)c3ccccc23)ccc1F)N1CCN(C(=O)C2CC2)CC1 [Olaparib] (partner 8 µM)
Outline: as §1

Alisertib + Trametinib = compound: COc1cc(Nc2ncc3c(n2)-c2ccc(Cl)cc2C(c2c(F)cccc2OC)=NC3)ccc1C(=O)O [Alisertib] + CC(=O)Nc1cccc(-n2c(=O)n(C3CC3)c(=O)c3c(Nc4ccc(I)cc4F)n(C)c(=O)c(C)c32)c1 [Trametinib] (partner 0.02 µM)
Outline: as §1

Cell Line | relative viability (Alisertib + Bortezomib; first compound 0.005 µM) | relative viability (Alisertib + Bortezomib; first compound 0.01581 µM) | relative viability (Alisertib + Bortezomib; first compound 0.05 µM) | relative viability (Alisertib + Bortezomib; first compound 0.1581 µM) | relative viability (Alisertib + Bortezomib; first compound 0.5 µM) | relative viability (Alisertib + Pictilisib; first compound 0.005 µM) | relative viability (Alisertib + Pictilisib; first compound 0.01581 µM) | relative viability (Alisertib + Pictilisib; first compound 0.05 µM) | relative viability (Alisertib + Pictilisib; first compound 0.1581 µM) | relative viability (Alisertib + Pictilisib; first compound 0.5 µM) | relative viability (Alisertib + Olaparib; first compound 0.005 µM) | relative viability (Alisertib + Olaparib; first compound 0.01581 µM) | relative viability (Alisertib + Olaparib; first compound 0.05 µM) | relative viability (Alisertib + Olaparib; first compound 0.1581 µM) | relative viability (Alisertib + Olaparib; first compound 0.5 µM) | relative viability (Alisertib + Trametinib; first compound 0.005 µM) | relative viability (Alisertib + Trametinib; first compound 0.01581 µM) | relative viability (Alisertib + Trametinib; first compound 0.05 µM) | relative viability (Alisertib + Trametinib; first compound 0.1581 µM) | relative viability (Alisertib + Trametinib; first compound 0.5 µM)
HCC-44 | 0.95 | 0.827 | 0.664 | 0.28 | 0.15 | 0.623 | 0.598 | 0.572 | 0.153 | 0.159 | 0.944 | 0.856 | 0.501 | 0.508 | 0.391 | 0.963 | 0.931 | 0.509 | 0.4 | 0.32
HCC-78 | 0.522 | 0.272 | 0.24 | 0.19 | 0.175 | 0.172 | 0.253 | 0.168 | 0.145 | 0.0967 | 0.772 | 0.503 | 0.23 | 0.292 | 0.218 | 0.67 | 0.646 | 0.263 | 0.236 | 0.259
HCC-366 | 1.04 | 0.345 | 0.0201 | 0.0154 | 0.0255 | 0.0828 | 0.135 | 0.0183 | 0.0243 | 0.0203 | 0.32 | 0.173 | 0.0172 | 0.0252 | 0.0457 | 0.306 | 0.23 | 0.0254 | 0.0345 | 0.0398
HCC-827 | 1.01 | 1.06 | 0.848 | 0.402 | 0.401 | 0.869 | 0.978 | 0.515 | 0.381 | 0.361 | 0.639 | 0.654 | 0.201 | 0.293 | 0.257 | 0.547 | 0.514 | 0.293 | 0.26 | 0.238
HOP-62 | 0.459 | 0.703 | 0.82 | 0.195 | 0.117 | 0.579 | 0.757 | 0.373 | 0.149 | 0.103 | 0.361 | 0.328 | 0.134 | 0.132 | 0.0731 | 0.398 | 0.337 | 0.274 | 0.223 | 0.174
IA-LM | 0.635 | 0.578 | 0.465 | 0.195 | 0.0832 | 0.332 | 0.25 | 0.201 | 0.142 | 0.0927 | 0.671 | 0.674 | 0.596 | 0.449 | 0.0913 | – | – | – | – | –
LC-2-ad | 0.907 | 0.369 | 0.264 | 0.144 | 0.112 | 0.116 | 0.251 | 0.107 | 0.108 | 0.105 | 0.642 | 0.523 | 0.211 | 0.245 | 0.192 | 0.826 | 0.698 | 0.517 | 0.353 | 0.191
LK-2 | – | – | – | – | – | 0.573 | 0.566 | 0.314 | 0.329 | 0.26 | 0.648 | 0.56 | 0.294 | 0.183 | 0.109 | 0.746 | 0.677 | 0.522 | 0.25 | 0.183
NCI-H358 | – | – | – | – | – | 0.269 | 0.327 | 0.217 | 0.154 | 0.14 | 0.529 | 0.284 | 0.117 | 0.111 | 0.12 | 0.123 | 0.138 | 0.0961 | 0.0877 | 0.0818
NCI-H522 | – | – | – | – | – | – | – | – | – | – | 0.604 | 0.591 | 0.453 | 0.452 | 0.437 | 0.779 | 0.777 | 0.728 | 0.551 | 0.445
NCI-H1299 | 0.995 | 0.983 | 0.674 | 0.457 | 0.286 | 0.753 | 0.698 | 0.187 | 0.179 | 0.0871 | 0.931 | 0.877 | 0.582 | 0.396 | 0.193 | – | – | – | – | –
NCI-H1395 | – | – | – | – | – | 0.566 | 0.517 | 0.597 | 0.492 | 0.377 | 0.438 | 0.424 | 0.442 | 0.37 | 0.361 | 1.04 | 0.922 | 0.85 | 0.481 | 0.38
NCI-H1563 | 0.835 | 0.817 | 0.833 | 0.858 | 0.604 | 0.646 | 0.608 | 0.606 | 0.717 | 0.296 | – | – | – | – | – | – | – | – | – | –
NCI-H1648 | – | – | – | – | – | – | – | – | – | – | – | 0.711 | 0.293 | 0.242 | 0.267 | – | 0.42 | 0.27 | 0.229 | 0.25
NCI-H1703 | 0.337 | 0.287 | 0.134 | 0.147 | 0.102 | 0.246 | 0.22 | 0.182 | 0.163 | 0.155 | 0.534 | 0.387 | 0.198 | 0.153 | 0.141 | – | – | – | – | –
NCI-H1793 | – | – | – | – | – | 0.327 | 0.297 | 0.23 | 0.18 | 0.208 | 0.798 | 0.354 | 0.296 | 0.273 | 0.132 | 0.373 | 0.285 | 0.192 | 0.207 | 0.188
NCI-H1944 | – | – | – | – | – | 0.327 | 0.35 | 0.351 | 0.21 | 0.205 | 0.402 | 0.381 | 0.318 | 0.201 | 0.178 | 0.414 | 0.408 | 0.272 | 0.251 | 0.173
NCI-H2170 | – | – | – | – | – | 0.276 | 0.303 | 0.282 | 0.19 | 0.192 | 0.601 | 0.509 | 0.307 | 0.206 | 0.163 | 0.871 | 0.842 | 0.401 | 0.407 | 0.17
NCI-H2342 | – | – | – | – | – | – | – | – | – | – | 0.463 | 0.475 | 0.298 | 0.33 | 0.349 | 0.758 | 0.809 | 0.483 | 0.481 | 0.443
SK-MES-1 | – | – | – | – | – | 0.326 | 0.333 | 0.212 | 0.147 | 0.123 | 0.594 | 0.614 | 0.351 | 0.192 | 0.168 | 0.525 | 0.556 | 0.603 | 0.468 | 0.183
SW 900 | – | – | – | – | – | – | – | – | – | – | 0.897 | 0.648 | 0.306 | 0.29 | 0.298 | 0.917 | 0.827 | 0.374 | 0.217 | 0.144
